Common to all, as to type: biochemical
The target in experiment [1] is T1, Ret kinase (Homo sapiens, UniProt P07949).
T1 construct: purchased Millipore (KinaseProfiler service); also Reaction Biology Corp. (Kinase Hotspot)
In words: Ret kinase inhibition assay (KinaseProfiler / Kinase Hotspot). The settings on record: compound at 1 μM. As to the method:
(§1) This example illustrated c-Src kinase, Aurora-A kinase, Flt3 kinase, Ret kinase and TrkA Kinase Assays of selected Compounds from this invention (referred to Daniele Fancelli et al, J. Med. Chem., 2006, 49 (24), pp 7247-7251). The KinaseProfiler™ Service Assay Protocols (Millipore) were used to test the kinase inhibiting activity of novel compounds from this invention. To do this, the buffer composition was as: 20 mM MOPS, 1 mM EDTA, 0.01% Brij-35, 5% Glycerol, 0.1% β-mercaptoethanol, 1 mg/mL BSA. Test compounds were initially dissolved in DMSO at the desired concentration, then serially diluted to the kinase assay buffer. In a final reaction volume of 25 μL, Aurora-A(h) (5-10 mU) is incubated with 8 mM MOPS pH 7.0, 0.2 mM EDTA, 200 μM LRRASLG (Kemptide), 10 mM MgAcetate and [γ^33P-ATP]. The reaction was initiated by the addition of the MgATP mix. After incubation for 40 minute at room temperature, the reaction was stopped by addition of 5 μL of a 3% phosphoric acid solution. 10 μL of the reaction was then spotted onto a P30 filtermat and washed three times for 5 minutes in 50 mM phosphoric acid and once in methanol prior to drying and scintillation counting. Wells containing substrate but no kinase and wells containing a phosphopeptide control were used to set 0% and 100% phosphorylation value, receptively.
(§2) Also Kinase Hotspot^SM kinase assay was used to test the compounds for IC50 or % inhibitions (Reaction Biology Corp.). Inhibitor IC50 values were determined by titration of compound at the optimal kinase concentration (Kinase EC50).

Experiment [2] deals with T2, Aurora-A(h) (Homo sapiens, UniProt O14965).
T2 construct: purchased Millipore (KinaseProfiler service); also Reaction Biology Corp. (Kinase Hotspot)
T2 sequence (O14965 1-403): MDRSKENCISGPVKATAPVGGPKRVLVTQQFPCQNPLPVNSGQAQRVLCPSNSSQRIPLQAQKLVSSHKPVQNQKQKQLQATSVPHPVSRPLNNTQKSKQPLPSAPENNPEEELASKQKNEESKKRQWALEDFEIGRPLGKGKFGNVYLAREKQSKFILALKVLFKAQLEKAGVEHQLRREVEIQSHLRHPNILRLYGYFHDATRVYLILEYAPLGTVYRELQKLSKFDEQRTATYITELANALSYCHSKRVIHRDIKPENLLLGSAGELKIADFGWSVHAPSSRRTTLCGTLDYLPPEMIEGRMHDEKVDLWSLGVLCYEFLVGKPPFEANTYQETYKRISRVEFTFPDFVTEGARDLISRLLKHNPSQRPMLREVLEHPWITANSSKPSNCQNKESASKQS
In words: Aurora-A kinase inhibition assay (KinaseProfiler / Kinase Hotspot). The settings on record: compound at 1 μM. The procedure:
as §1, §2

For experiment [3], the target named is T3, Flt3 kinase (Homo sapiens, UniProt P36888).
T3 construct: purchased Millipore (KinaseProfiler service); also Reaction Biology Corp. (Kinase Hotspot)
T3 sequence (P36888 27-993): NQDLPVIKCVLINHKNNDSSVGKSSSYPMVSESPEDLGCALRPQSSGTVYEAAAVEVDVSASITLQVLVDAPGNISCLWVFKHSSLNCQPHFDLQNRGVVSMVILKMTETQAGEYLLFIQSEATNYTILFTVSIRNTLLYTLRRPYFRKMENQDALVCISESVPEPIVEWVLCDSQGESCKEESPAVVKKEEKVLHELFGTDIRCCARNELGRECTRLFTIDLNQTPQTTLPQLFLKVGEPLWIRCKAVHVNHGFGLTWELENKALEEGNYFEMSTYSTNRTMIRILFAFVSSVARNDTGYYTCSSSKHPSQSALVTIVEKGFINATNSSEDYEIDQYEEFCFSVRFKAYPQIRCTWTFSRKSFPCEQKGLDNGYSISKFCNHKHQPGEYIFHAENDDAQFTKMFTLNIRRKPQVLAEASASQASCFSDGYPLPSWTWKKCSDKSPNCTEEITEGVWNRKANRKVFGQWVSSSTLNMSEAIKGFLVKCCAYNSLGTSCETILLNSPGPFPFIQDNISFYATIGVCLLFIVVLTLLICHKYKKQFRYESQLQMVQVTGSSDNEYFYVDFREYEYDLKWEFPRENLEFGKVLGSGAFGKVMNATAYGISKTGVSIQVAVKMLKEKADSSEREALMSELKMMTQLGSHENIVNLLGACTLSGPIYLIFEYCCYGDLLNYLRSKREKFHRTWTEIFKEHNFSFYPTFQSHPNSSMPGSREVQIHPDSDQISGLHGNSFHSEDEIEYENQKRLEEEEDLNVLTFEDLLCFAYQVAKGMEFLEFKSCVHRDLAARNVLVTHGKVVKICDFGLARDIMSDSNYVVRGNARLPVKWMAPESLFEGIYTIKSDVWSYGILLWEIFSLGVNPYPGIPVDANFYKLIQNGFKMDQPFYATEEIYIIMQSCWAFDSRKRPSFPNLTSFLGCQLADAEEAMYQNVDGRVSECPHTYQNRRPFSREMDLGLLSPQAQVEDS
Nature of the experiment: Flt3 kinase inhibition assay (KinaseProfiler / Kinase Hotspot). The settings on record: compound at 1 μM. As to the method: as §1, §2

Experiment [4] has as its target T4, c-Src kinase (Homo sapiens, UniProt P12931).
T4 construct: purchased Millipore (KinaseProfiler service); also Reaction Biology Corp. (Kinase Hotspot)
In words: c-Src kinase inhibition assay (KinaseProfiler / Kinase Hotspot). The settings on record: compound at 1 μM; read-out: % Inhibition @1 μM cSrc. The procedure:
as §1, §2

The target in experiment [5] is T5, TrkA Kinase (Homo sapiens, UniProt P04629).
T5 construct: purchased Millipore (KinaseProfiler service); also Reaction Biology Corp. (Kinase Hotspot)
T5 sequence (P04629 33-796): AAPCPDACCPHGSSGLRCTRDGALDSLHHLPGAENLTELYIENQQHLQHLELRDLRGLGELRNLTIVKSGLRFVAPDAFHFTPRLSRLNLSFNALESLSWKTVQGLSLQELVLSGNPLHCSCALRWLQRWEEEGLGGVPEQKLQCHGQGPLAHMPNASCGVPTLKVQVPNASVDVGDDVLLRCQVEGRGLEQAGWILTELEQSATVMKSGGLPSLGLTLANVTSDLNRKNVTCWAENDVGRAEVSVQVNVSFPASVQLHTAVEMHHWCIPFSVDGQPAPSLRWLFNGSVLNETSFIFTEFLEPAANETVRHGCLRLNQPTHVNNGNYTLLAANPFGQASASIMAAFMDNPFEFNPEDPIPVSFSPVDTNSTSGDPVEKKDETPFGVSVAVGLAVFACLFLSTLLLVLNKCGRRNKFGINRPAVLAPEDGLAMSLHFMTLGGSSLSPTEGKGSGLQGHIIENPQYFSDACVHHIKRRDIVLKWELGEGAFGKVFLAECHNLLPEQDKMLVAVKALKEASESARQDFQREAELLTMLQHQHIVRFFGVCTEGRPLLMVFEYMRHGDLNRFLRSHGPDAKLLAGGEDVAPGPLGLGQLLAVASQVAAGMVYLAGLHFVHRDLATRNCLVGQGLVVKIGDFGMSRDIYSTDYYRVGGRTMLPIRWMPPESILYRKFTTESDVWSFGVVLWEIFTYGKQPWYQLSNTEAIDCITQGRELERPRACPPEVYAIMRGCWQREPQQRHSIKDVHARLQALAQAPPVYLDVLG
In words: TrkA kinase inhibition assay (KinaseProfiler / Kinase Hotspot). The note with it: compound at 1 μM. As to the method: as §1, §2

A value given as a limit tells only on which side of the number the result lay.

T4 sequence (P12931 whole entry): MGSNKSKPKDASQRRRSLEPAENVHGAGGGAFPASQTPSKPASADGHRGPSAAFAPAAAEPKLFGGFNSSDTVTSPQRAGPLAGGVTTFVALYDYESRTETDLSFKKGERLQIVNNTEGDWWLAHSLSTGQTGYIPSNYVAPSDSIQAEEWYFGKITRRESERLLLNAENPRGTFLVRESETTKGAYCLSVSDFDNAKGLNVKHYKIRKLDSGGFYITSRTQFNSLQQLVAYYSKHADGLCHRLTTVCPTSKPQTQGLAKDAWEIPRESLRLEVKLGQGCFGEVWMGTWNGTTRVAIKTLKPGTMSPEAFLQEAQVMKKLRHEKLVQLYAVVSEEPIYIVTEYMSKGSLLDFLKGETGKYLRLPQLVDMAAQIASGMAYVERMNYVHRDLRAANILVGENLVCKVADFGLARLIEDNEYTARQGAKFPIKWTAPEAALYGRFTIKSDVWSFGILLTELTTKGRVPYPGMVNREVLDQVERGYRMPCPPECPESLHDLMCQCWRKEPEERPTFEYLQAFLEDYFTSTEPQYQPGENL
T1 sequence (P07949 29-1114): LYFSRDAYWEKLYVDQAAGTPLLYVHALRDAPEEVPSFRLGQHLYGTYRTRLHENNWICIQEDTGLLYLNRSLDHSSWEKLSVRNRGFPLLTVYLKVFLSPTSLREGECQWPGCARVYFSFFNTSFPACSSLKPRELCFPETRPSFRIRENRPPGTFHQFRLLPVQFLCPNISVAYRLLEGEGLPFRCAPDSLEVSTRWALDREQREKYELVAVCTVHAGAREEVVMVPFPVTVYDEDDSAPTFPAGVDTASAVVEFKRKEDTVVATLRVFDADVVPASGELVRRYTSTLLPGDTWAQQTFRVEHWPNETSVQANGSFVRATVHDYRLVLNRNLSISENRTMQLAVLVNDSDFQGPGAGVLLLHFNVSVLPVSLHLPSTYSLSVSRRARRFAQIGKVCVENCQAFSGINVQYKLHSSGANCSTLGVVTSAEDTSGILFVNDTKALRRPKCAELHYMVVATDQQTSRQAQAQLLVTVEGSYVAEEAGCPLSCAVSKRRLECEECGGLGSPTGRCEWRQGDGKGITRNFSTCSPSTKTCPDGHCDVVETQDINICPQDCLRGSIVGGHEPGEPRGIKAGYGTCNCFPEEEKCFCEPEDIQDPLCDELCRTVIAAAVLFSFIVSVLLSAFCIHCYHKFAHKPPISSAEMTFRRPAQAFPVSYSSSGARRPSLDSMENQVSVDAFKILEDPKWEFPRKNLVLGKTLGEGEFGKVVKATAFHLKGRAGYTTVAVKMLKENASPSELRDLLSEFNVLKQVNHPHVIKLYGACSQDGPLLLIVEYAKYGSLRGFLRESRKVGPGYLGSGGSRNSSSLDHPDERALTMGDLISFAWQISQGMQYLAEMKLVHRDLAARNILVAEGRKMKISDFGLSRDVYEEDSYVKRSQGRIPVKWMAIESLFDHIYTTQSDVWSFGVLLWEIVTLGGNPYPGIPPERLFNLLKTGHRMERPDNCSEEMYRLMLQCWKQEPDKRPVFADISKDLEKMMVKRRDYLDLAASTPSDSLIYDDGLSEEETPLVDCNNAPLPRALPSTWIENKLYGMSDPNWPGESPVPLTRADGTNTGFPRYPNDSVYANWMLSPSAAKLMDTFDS

The term inhibition denotes the change of the read-out against control, counted positive when it falls. For the compound `CC(C)c1cnc(Nc2nc(NC(C)c3ccc(F)cc3)nc(N3CCN(C)CC3)n2)s1` (stereo not shown) [Example 2], the inhibition at 1 µM is less than 50% in experiment [1]; less than 50% in experiment [2]; more than 90% in experiment [3]; more than 90% in experiment [4]; more than 90% in experiment [5].

Regarding `CC(C)c1cnc(Nc2nc(N[C@@H](C)c3ccc(F)cc3)nc(N3CCN(C)CC3)n2)s1` [Example 3], the inhibition at 1 µM is 50 to 90% in experiment [1]; 50 to 90% in experiment [2]; more than 90% in experiment [3]; more than 90% in experiment [4]; more than 90% in experiment [5].

For `CC(C)c1cnc(Nc2nc(N[C@H](C)c3ccc(F)cc3)nc(N3CCN(C)CC3)n2)s1` [Example 4], the inhibition at 1 µM was less than 50% in experiment [1]; less than 50% in experiment [2]; more than 90% in experiment [3]; 50 to 90% in experiment [4]; 50 to 90% in experiment [5].

As to `Cc1cnc(Nc2nc(NCc3ccc4c(c3)OCO4)nc(N3CCN(C)CC3)n2)s1` [Example 6], the inhibition at 1 µM was 50 to 90% in experiment [1]; 50 to 90% in experiment [2]; more than 90% in experiment [3]; 50 to 90% in experiment [4]; more than 90% in experiment [5].

Regarding `Cc1cnc(Nc2nc(NCc3ccccc3)nc(N3CCN(C)CC3)n2)s1` [Example 7], the inhibition at 1 µM in experiment [1] is more than 90%; in experiment [2], 50 to 90%; in experiment [3] it was more than 90%; in experiment [4] it was 50 to 90%; in experiment [5], more than 90%.

For `Cc1cnc(Nc2nc(NCc3ccc(F)cc3)nc(N3CCN(C)CC3)n2)s1` [Example 8], the inhibition at 1 µM is 50 to 90% in experiment [1]; 50 to 90% in experiment [2]; more than 90% in experiment [3]; 50 to 90% in experiment [4]; more than 90% in experiment [5].

Consider `CN1CCN(c2nc(NCc3ccc(F)cc3)nc(Nc3cc(-c4ccco4)[nH]n3)n2)CC1` [Example 9], for which the inhibition at 1 µM in experiment [1] was less than 50%; in experiment [2] it was less than 50%; in experiment [3], more than 90%; in experiment [4], 50 to 90%; in experiment [5] it was more than 90%.

Turning to `CN1CCN(c2nc(Nc3cc(-c4ccco4)[nH]n3)nc(N(C)Cc3ccc(F)cc3)n2)CC1` [Example 10], the inhibition at 1 µM in experiment [1] is less than 50%; in experiment [2], 50 to 90%; in experiment [3] it was more than 90%; in experiment [4] it was 50 to 90%; in experiment [5], more than 90%.

Take `CN1CCN(c2nc(Nc3cc(-c4ccco4)[nH]n3)nc(SCc3ccc(F)cc3)n2)CC1` [Example 11]: the inhibition at 1 µM is less than 50% in experiment [1]; 50 to 90% in experiment [2]; more than 90% in experiment [3]; 50 to 90% in experiment [4]; more than 90% in experiment [5].

Take `CN1CCN(c2nc(NCc3ccccc3)nc(Nc3cc(-c4ccco4)[nH]n3)n2)CC1` [Example 12]: the inhibition at 1 µM in experiment [1] was less than 50%; in experiment [2] it was less than 50%; in experiment [3] it was more than 90%; in experiment [4], 50 to 90%; in experiment [5], more than 90%.

With `CN1CCN(c2nc(Nc3cc(-c4ccco4)[nH]n3)nc(OCc3ccccc3)n2)CC1` [Example 14], the inhibition at 1 µM is less than 50% in experiment [1]; less than 50% in experiment [2]; more than 90% in experiment [3]; less than 50% in experiment [4]; more than 90% in experiment [5].

With `CN1CCN(c2nc(Nc3cc(-c4ccco4)[nH]n3)nc(SCc3ccccc3)n2)CC1` [Example 15], the inhibition at 1 µM in experiment [1] is less than 50%; in experiment [2], less than 50%; in experiment [3] it was more than 90%; in experiment [4] it was less than 50%; in experiment [5], more than 90%.

Regarding `C[C@@H](Nc1nc(Nc2cc(-c3ccco3)[nH]n2)nc(N2CCN(C)CC2)n1)c1ccc(F)cc1` [Example 18], the inhibition at 1 µM in experiment [1] is more than 90%; in experiment [2], less than 50%; in experiment [3] it was more than 90%; in experiment [4] it was more than 90%; in experiment [5] it was more than 90%.

For the compound `CN1CCN(c2nc(NCc3ccccc3)nc(Nc3ncc(-c4ccccc4)s3)n2)CC1` [Example 19], the inhibition at 1 µM in experiment [1], in experiment [2], in experiment [3], in experiment [4] and in experiment [5] was less than 50% throughout.

`CC(Nc1nc(Nc2cc(C3CC3)[nH]n2)nc(N2CCN(C)CC2)n1)c1ccc(F)cc1` (stereo not shown) [Example 20]: the inhibition at 1 µM was less than 50% in experiment [1]; 50 to 90% in experiment [2]; 50 to 90% in experiment [3]; 50 to 90% in experiment [4]; 50 to 90% in experiment [5].

Turning to `C[C@H](Nc1nc(Nc2cc(-c3ccco3)[nH]n2)nc(N2CCN(C)CC2)n1)c1ccc(F)cc1` [Example 21], the inhibition at 1 µM in experiment [1] is more than 90%; in experiment [2], less than 50%; in experiment [3] it was more than 90%; in experiment [4], less than 50%; in experiment [5] it was more than 90%.

Turning to `C[C@@H](Nc1nc(Nc2cc(-c3ccco3)[nH]n2)nc(N2CCN(C)CC2)n1)c1ccc(F)cc1` [Example 22], in experiment [1], the “% Inhibition @1 μM Ret” value is reported as more than 90%. The “% Inhibition @1 μM Flt3” value in experiment [3] is reported as more than 90%. In experiment [5], the “% Inhibition @1 μM TrkA” value is recorded as more than 90%.

Turning to `CN1CCN(c2nc(Nc3cc(-c4ccco4)[nH]n3)nc(NC(C)(C)c3ccccc3)n2)CC1` [Example 23], the inhibition at 1 µM is more than 90% in experiment [1]; less than 50% in experiment [2]; more than 90% in experiment [3]; less than 50% in experiment [4]; more than 90% in experiment [5].
